Measured values reported in patent US20220324865A1 (Bayer Aktiengesellschaft, priority 2018, published 2022).

target: T1, human EP3 receptor (Homo sapiens, UniProt P43115); assay: Cellular in vitro assay for determining EP3 receptor activity (human EP3 cell line, sulprostone-stimulated calcium luminescence); type: cell-based; conditions: CHO cells expressing human EP3 and mitochondrial Clytin; antagonist mode, sulprostone at EC50; read-out: EP3 CHO mtCLY ANTAG IC50
T1 construct: expressed in transfected cells; host or cells: CHO K1 (Chinese Hamster Ovary), stably co-transfected with Galpha16 and mitochondrial clytin
T1 sequence (P43115 1-390): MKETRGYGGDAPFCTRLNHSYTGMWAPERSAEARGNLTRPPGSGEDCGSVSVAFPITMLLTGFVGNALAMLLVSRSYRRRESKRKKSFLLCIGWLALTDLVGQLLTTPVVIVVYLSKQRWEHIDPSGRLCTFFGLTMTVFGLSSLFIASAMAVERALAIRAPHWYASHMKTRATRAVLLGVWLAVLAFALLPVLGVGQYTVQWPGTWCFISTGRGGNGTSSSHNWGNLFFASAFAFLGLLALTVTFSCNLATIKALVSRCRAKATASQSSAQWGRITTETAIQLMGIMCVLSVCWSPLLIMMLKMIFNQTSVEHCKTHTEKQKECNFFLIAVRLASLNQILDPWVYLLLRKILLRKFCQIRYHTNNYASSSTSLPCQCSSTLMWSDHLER
Procedure, shortened: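 Antagonist activity was measured as inhibition of the luminescent calcium signal elicited by EC50 sulprostone, following 10 min compound pretreatment. The cell line was recombinant CHO K1 co-expressing human EP3, Gα16 and the photoprotein Clytin, reconstituted with coelenterazine.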

First: CN1CC(NC(=O)c2nn3cc(-c4ccc5ccccc5c4)[nH]c(=O)c3c2C(F)(F)F)(c2ccc(F)cc2)C1 [Example 1-32, N-[3-(4-Fluorophenyl)-1-methylazetidin-3-yl]-6-(naphthalen-2-yl)-4-oxo-3-(trifluoromethyl)-4,5-dihydropyrazolo[1,5-a]pyrazine-2-carboxamide]
Second: CN1CC(NC(=O)c2nn3cc(-c4ccc5ccccc5c4)[nH]c(=O)c3c2C2CC2)(c2ccc(F)cc2)C1 [Example 1-82, 3-Cyclopropyl-N-[3-(4-fluorophenyl)-1-methylazetidin-3-yl]-6-(naphthalen-2-yl)-4-oxo-4,5-dihydropyrazolo[1,5-a]pyrazine-2-carboxamide]
The IC50 of the first is 2.9-fold lower: 1.6 nM for the first, 4.6 nM for the second.

`O=C(N[C@@H](c1ccc(F)cc1)C(F)(F)CO)c1nn2cc(-c3ccc(Cl)c(F)c3)[nH]c(=O)c2c1C1CCC1` [6-571] and `Cc1cc(-c2cn3nc(C(=O)N[C@@H](c4ccc(F)cc4)C(F)(F)CO)c(C4CCC4)c3c(=O)[nH]2)ccc1Cl` [6-619] are within 1.5-fold of each other in IC50: 1.5 nM for the first, 1.15 nM for the second.

First: Cc1cc(-c2cn3nc(C(=O)NC(c4ccc(F)cc4)C4(O)CC4)c(C4CC4)c3c(=O)[nH]2)ccc1F (single isomer, unassigned) [6-652]
Second: Cc1ccc(-c2cn3nc(C(=O)N[C@H](C)c4ccc(F)cc4)c(C(F)(F)F)c3c(=O)[nH]2)cc1C [Example 1-95, 6-(3,4-Dimethylphenyl)-N-[(1R)-1-(4-fluorophenyl)ethyl]-4-oxo-3-(trifluoromethyl)-4,5-dihydropyrazolo[1,5-a]pyrazine-2-carboxamide]
The IC50 of the first is 5.9-fold higher: 10 nM for the first, 1.7 nM for the second. The second is the more potent here.

Compared with `Cc1ccc(-c2cn3nc(C(=O)NC(CO)c4ccc(F)cc4)c(C(F)(F)F)c3c(=O)[nH]2)cc1Cl` (single isomer, unassigned) [6-156], `Cc1ccc(-c2cn3nc(C(=O)N[C@@H](c4ccc(F)cc4)C(F)(F)CO)c(C(F)(F)F)c3c(=O)[nH]2)cc1F` [6-141] is 1.7-fold higher in IC50: 1.3 nM for the first, 2.23 nM for the second. The first is the more potent here.

Compared with `CCN1CCC(NC(=O)c2nn3cc(-c4ccc(Cl)c(C)c4)[nH]c(=O)c3c2C2CC2)(C(F)(F)F)C1` (racemic) [6-292], `Cc1ccc(-c2cn3nc(C(=O)NCC(O)C(F)(F)F)c(C4CC4)c3c(=O)[nH]2)cc1C` (racemic) [6-435] is 7.9-fold lower in IC50: 2.05 nM for the first, 0.26 nM for the second.

Going from `Cc1ccc(-c2cn3nc(C(=O)NCC(C)(N)C(F)(F)F)c(C(F)(F)F)c3c(=O)[nH]2)cc1Cl` (racemic) [6-169] to `Cc1cc(-c2cn3nc(C(=O)NC4(c5ccc(F)cc5)CN(CC(F)(F)F)C4)c(C(F)(F)F)c3c(=O)[nH]2)ccc1Cl` [6-237], the IC50 falls from 4.05 nM to 1.9 nM (2.1-fold). The second is the more potent here.

Compared with `Cc1cccc2ncc(-c3cn4nc(C(=O)NC5(c6ccccc6)CC5)c(C(C)C)c4c(=O)[nH]3)cc12` [Example 4-43, 6-(5-Methylquinolin-3-yl)-4-oxo-N-(1-phenylcyclopropyl)-3-(propan-2-yl)-4,5-dihydropyrazolo[1,5-a]pyrazine-2-carboxamide], `COc1ccc(C2(NC(=O)c3nn4cc(-c5ccc(C)c(Cl)c5)[nH]c(=O)c4c3C3CC3)CN(C)C2)cc1` [6-257] is 3.9-fold higher in IC50: 0.84 nM for the first, 3.3 nM for the second. The first is the more potent here.

First: Cc1ccc(-c2cn3nc(C(=O)N[C@@H](C4CC4)C(C)(C)O)c(C4CC4)c3c(=O)[nH]2)cc1Cl [6-275]
Second: Cc1ccc(-c2cn3nc(C(=O)N[C@@H](C)C(C)(C)C)c(C4CC4)c3c(=O)[nH]2)cc1Cl [6-253]
The IC50 of the first is 1.7-fold lower: 2.85 nM for the first, 4.75 nM for the second.

`Cc1nn(C)cc1C(C)NC(=O)c1cc2c(=O)[nH]c(-c3ccc4ccccc4c3)cn2n1` (stereo not drawn) [Example 2-5, N-[1-(1,3-Dimethyl-1H-pyrazol-4-yl)ethyl]-6-(2-naphthyl)-4-oxo-4,5-dihydropyrazolo[1,5-a]pyrazine-2-carboxamide] and `Cc1ccc(-c2[nH]c(=O)c3c(C(F)(F)F)c(C(=O)N[C@H](C)c4ccc(F)cc4)nn3c2C)cc1C` [Example 1-123, 6-(3,4-Dimethylphenyl)-N-[(1R)-1-(4-fluorophenyl)ethyl]-7-methyl-4-oxo-3-(trifluoromethyl)-4,5-dihydropyrazolo[1,5-a]pyrazine-2-carboxamide] are within 1.5-fold of each other in IC50: 4 nM for the first, 3.2 nM for the second.
